The subject of assay [1] is enkephalin/endorphin transport system in SK—N—SH cells. The assay is described as follows: [^3H]deltorphin II uptake in SK—N—SH cells, effect of peptides and amino acids. Conditions: for influence on kinetics of deltorphin II uptake / type of inhibition: 250 μM L-Lysine; for effect on [^3H]deltorphin II uptake (in words): test substance 1 mM. Type of assay: cell-based, human. Here is the method:
Uptake measurements in control ARPE-19 cells and Tat-ARPE-19 cells. Control ARPE-19 cells and Tat-ARPE-19 cells were maintained in 75-cm^2 culture flasks in Dulbecco's modified Eagle's medium/F12 medium (1:1, volume/volume (v/v)) in the presence of fetal bovine serum (10%) and G418 (100 μg/ml). For uptake measurements, cells were released by trypsin treatment and seeded in 24-well culture plates at an initial density of 0.1×10^6 cells/well. The culture medium was replaced with fresh medium on the second day following the initial seeding and uptake measurements were made on the third day. […] After incubation at 37° C. for a desired time, uptake was terminated by the removal of the medium and washing of the cells with ice-cold uptake buffer. The cells were then dissolved in 1% SDS in 0.2 M NaOH and used for measurement of radioactivity. The uptake buffer in most experiments was 25 mM Hepes/Tris (pH 7.5), containing 140 mM NaCl, 5.4 mM KCl, 1.8 mM CaCl2, 0.8 mM MgSO4 and 5 mM glucose.
Since enkephalins and endorphins are relevant to pain perception and to further provide evidence in support of a role for the transport system in opioidergic neurotransmission, the human neuronal cell line SK—N—SH was tested for expression of the transport system. […] Unless otherwise specified, procedures are as detailed in Example 1.
The concentration of enkephalins and dynorphins was 1 mM.
Finally, the relative affinity of various enkephalins and dynorphins for the transport system in SK—N—SH cells was determined.
To the further characterize the opioid transport of the present invention, various specific peptides that act as positive modulators of the enkephalin/endorphin transport system in the human neuronal cell line SK—N—SH were identified. Unless otherwise specified, procedures are as detailed in Example 1. […] Uptake was measured in the presence of NaCl for 30 minutes. The concentration of the dipeptides was 1 mM.
Uptake was measured in the presence of NaCl for 30 minutes. The concentration of the tripeptides was 1 mM.
Unless otherwise specified, procedures are as described in more detail in Example 1.
The dose-response relationship for the inhibition of the enkephalin/endorphin transport system by L-Lysine and its methyl and ethyl esters is shown in FIG. 15.

Another assay deals with SK—N—SH cells. The assay is described as follows: L-lysine uptake in SK—N—SH cells. Type of assay: cell-based, human. The method, then:
Whether or not L-lysine is a transportable substrate for the opioid peptide transport system was tested. For this, uptake of L-lysine was studied and the influence of Na^+ and opioid peptides assessed in SK—N—SH cells.

Assay [2] has as its system opioid peptide transport system in rMC-1 cells. The experiment in a line: Opioid peptide transport in rMC-1 cells. The class given is cell-based, rat.

“Also recorded” adds a separate entry of the source.

As a reminder, the Ki is a dissociation constant, usually derived from enzyme kinetics or from competition with a known ligand.

With `NCCCC[C@H](N)C(=O)O` [L-Lys, L-lysine], the “interaction with the opioid peptide transport system (in words, summary of Examples)” value in assay [1] is “inhibited; also recorded: not a transportable substrate but a blocker”. In addition, the entries for the “influence on kinetics of deltorphin II uptake / type of inhibition” value in assay [1] (listed as L-Lysine) and in assay [1] (listed as L-lysine) were “decreased the maximal velocity of the transport system without affecting the affinity for deltorphin II; also recorded: decreasing the maximal velocity without affecting the substrate affinity” and “non-competitive”, respectively. Further, the “Deltorphin II uptake” value in assay [1] ([^3H]deltorphin II 25 nM, NaCl, 30 minutes, compound 1 mM) is recorded as 0.26 ± 0.01 pmol/30 min/mg protein. Further, the “effect on [^3H]deltorphin II uptake (in words)” value in assay [1] ([^3H]deltorphin II 25 nM, NaCl, 30 minutes, listed as L-Lysine) was “significant inhibition; also recorded: most potent inhibitors”; in assay [1] ([^3H]deltorphin II 25 nM, NaCl, 30 minutes, listed as L-lysine), “greatest inhibition; also recorded: inhibit the uptake to a marked extent”. Besides, the Ki in assay [1] (read-out: Ki for inhibition of deltorphin II uptake, dose-response studies) came to 160 ± 19 µM. In the assay on SK—N—SH cells, the “L-lysine uptake: influence of Na^+ and opioid peptides; transportable substrate or not” value was “not Na^+-dependent and is insensitive to opioid peptides; also recorded: not a transportable substrate”. For the same compound, the “interaction with the opioid peptide transport system (in words)” value in assay [2] was “inhibited; also recorded: not a transportable substrate but a blocker”.
